From PubChem BioAssay (NCI)
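Five concentrations, 48 hours, 96-well plates. GI50: concentration for 50% inhibition of growth. The concentration for full growth arrest is given as TGI.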

Experiments:
Experiment in all cases: DTP human tumour cell line panel, 48 h
[1] = system: HL-60(TB) leukemia
[2] = system: NCI-H522 lung
[3] = system: SW-620 colon
[4] = system: MALME-3M melanoma
[5] = system: UO-31 renal
[6] = system: A498 renal
[7] = system: OVCAR-5 ovarian
[8] = system: M14 melanoma
[9] = system: SK-MEL-5 melanoma
[10] = system: HOP-62 NSCLC
[11] = system: 786-0 renal
[12] = system: A549 NSCLC
[13] = system: SK-MEL-2 melanoma
[14] = system: SK-OV-3 ovarian
[15] = system: OVCAR-8 ovarian
[16] = system: SNB-19 CNS
[17] = system: MOLT-4 leukemia
[18] = system: T-47D breast
[19] = system: ACHN renal
[20] = system: NCI-H23 lung
[21] = system: SK-MEL-28 melanoma
[22] = system: KM12 colon
[23] = system: U251 CNS
[24] = system: SF-268 CNS
[25] = system: LOX IMVI melanoma
[26] = system: NCI-H460 lung
[27] = system: OVCAR-3 ovarian
[28] = system: EKVX NSCLC
[29] = system: CCRF-CEM leukemia
[30] = system: SR leukemia
[31] = system: CAKI-1 renal
[32] = system: UACC-62 melanoma
[33] = system: SNB-75 CNS
[34] = system: COLO 205 colon
[35] = system: NCI-H226 lung
[36] = system: DU-145 prostate
[37] = system: MCF7 breast
[38] = system: IGROV1 ovarian
[39] = system: HCT-116 colon
[40] = system: HS 578T breast
[41] = system: SF-295 CNS
[42] = system: UACC-257 melanoma
[43] = system: PC-3 prostate
[44] = system: HT29 colon
[45] = system: HCT-15 colon
[46] = system: MDA-MB-231 breast
[47] = system: HCC-2998 colon
[48] = system: OVCAR-4 ovarian
[49] = system: TK-10 renal
[50] = system: BT-549 breast
[51] = system: RPMI-8226 leukemia
[52] = system: SF-539 CNS
[53] = system: NCI/ADR-RES ovarian
[54] = system: K-562 leukemia
[55] = system: SN12C renal
[56] = system: MDA-MB-435

CCCCN1C=CCN(CCCC)C1
GI50 [1]: 21.2 µM
TGI [1]: 75.4 µM
GI50 [2]: 52.5 µM
TGI [2]: > 100 µM
GI50 [3]: 70.1 µM
TGI [3]: > 100 µM
GI50 [4]: 21.2 µM
TGI [4]: 57.3 µM
GI50 [5]: > 100 µM
TGI [5]: > 100 µM
GI50 [6]: > 100 µM
TGI [6]: > 100 µM
GI50 [7]: > 100 µM
TGI [7]: > 100 µM
GI50 [8]: 85.1 µM
TGI [8]: > 100 µM
GI50 [9]: 30.1 µM
TGI [9]: > 100 µM
GI50 [10]: > 100 µM
TGI [10]: > 100 µM
GI50 [11]: > 100 µM
TGI [11]: > 100 µM
GI50 [12]: > 100 µM
TGI [12]: > 100 µM
GI50 [13]: 46.3 µM
TGI [13]: > 100 µM
GI50 [14]: > 100 µM
TGI [14]: > 100 µM
GI50 [15]: 61.7 µM
TGI [15]: > 100 µM
GI50 [16]: 46.4 µM
TGI [16]: > 100 µM
GI50 [17]: 60.7 µM
TGI [17]: > 100 µM
GI50 [18]: 27.3 µM
TGI [18]: > 100 µM
GI50 [19]: 89.7 µM
TGI [19]: > 100 µM
GI50 [20]: 63.8 µM
TGI [20]: > 100 µM
GI50 [21]: 86.9 µM
TGI [21]: > 100 µM
GI50 [22]: 35.8 µM
TGI [22]: > 100 µM
GI50 [23]: 32.2 µM
TGI [23]: > 100 µM
GI50 [24]: 53 µM
TGI [24]: > 100 µM
GI50 [25]: 68.5 µM
TGI [25]: > 100 µM
GI50 [26]: 47.5 µM
TGI [26]: > 100 µM
GI50 [27]: 23.8 µM
TGI [27]: 57.2 µM
GI50 [28]: 18.5 µM
TGI [28]: > 100 µM
GI50 [29]: > 100 µM
TGI [29]: > 100 µM
GI50 [30]: > 100 µM
TGI [30]: > 100 µM
GI50 [31]: > 100 µM
TGI [31]: > 100 µM
GI50 [32]: 48.1 µM
TGI [32]: > 100 µM
GI50 [33]: > 100 µM
TGI [33]: > 100 µM
GI50 [34]: 28.9 µM
TGI [34]: > 100 µM
GI50 [35]: > 100 µM
TGI [35]: > 100 µM
GI50 [36]: > 100 µM
TGI [36]: > 100 µM
GI50 [37]: 57 µM
TGI [37]: > 100 µM
GI50 [38]: 66.4 µM
TGI [38]: > 100 µM
GI50 [39]: 39 µM
TGI [39]: > 100 µM
GI50 [40]: 63.4 µM
TGI [40]: > 100 µM
GI50 [41]: 49.8 µM
TGI [41]: > 100 µM
GI50 [42]: 22.8 µM
TGI [42]: 80.7 µM
GI50 [43]: 37.7 µM
TGI [43]: > 100 µM
GI50 [44]: 61.4 µM
TGI [44]: > 100 µM
GI50 [45]: > 100 µM
TGI [45]: > 100 µM
GI50 [46]: > 100 µM
TGI [46]: > 100 µM
GI50 [47]: 34 µM
TGI [47]: > 100 µM
GI50 [48]: 58.8 µM
TGI [48]: > 100 µM
GI50 [49]: > 100 µM
TGI [49]: > 100 µM
GI50 [50]: > 100 µM
TGI [50]: > 100 µM
GI50 [51]: 23.6 µM
TGI [51]: 93.6 µM
GI50 [52]: > 100 µM
TGI [52]: > 100 µM
GI50 [53]: > 100 µM
TGI [53]: > 100 µM
GI50 [54]: 32 µM
TGI [54]: > 100 µM
GI50 [55]: 71.7 µM
TGI [55]: > 100 µM
GI50 [56]: 33.8 µM
TGI [56]: > 100 µM
